From US5182284A, “Piperazine compounds, processes for preparation thereof and medical uses thereof” (Taiho Pharmaceutical Co., Ltd., priority 1990, dated 1993) come the findings set out here.

SMILES strings stand for the structures.

The target of one experiment is Cyclooxygenase. Kind of experiment: Cyclooxygenase inhibitory effect. The class given is biochemical. The conditions noted are these: seminal vesicular gland microsomes, 14C-arachidonic acid, prostaglandin E2 formation. How it is done:
(1) Cyclooxygenase inhibitory effect
The assay was carried out by the method described in Biochem. Pharmacol. 25, 2479-2484 (1976).
^14 C-Arachidonic acid was reacted with seminal vesicular gland microsomes and the test drugs at various concentrations over a predetermined period of time and the obtained prostaglandin E2 was separated by thin-layer chromatography. The radioactivity was determined by liquid scintillation counter. The IC50 values were calculated by the comparison with the radioactivity of the control.

The target of a further experiment is T1, 5-Lipoxygenase (Cavia porcellus, UniProt A0A286X958).
T1 construct: the polymorphonuclear leukocytes were collected and the cytosol fraction was obtained as an enzyme source; endogenous in cells; host or cells: guinea pig peritoneal polymorphonuclear leukocytes (casein-elicited), cytosol fraction
T1 sequence (A0A286X958 1-674): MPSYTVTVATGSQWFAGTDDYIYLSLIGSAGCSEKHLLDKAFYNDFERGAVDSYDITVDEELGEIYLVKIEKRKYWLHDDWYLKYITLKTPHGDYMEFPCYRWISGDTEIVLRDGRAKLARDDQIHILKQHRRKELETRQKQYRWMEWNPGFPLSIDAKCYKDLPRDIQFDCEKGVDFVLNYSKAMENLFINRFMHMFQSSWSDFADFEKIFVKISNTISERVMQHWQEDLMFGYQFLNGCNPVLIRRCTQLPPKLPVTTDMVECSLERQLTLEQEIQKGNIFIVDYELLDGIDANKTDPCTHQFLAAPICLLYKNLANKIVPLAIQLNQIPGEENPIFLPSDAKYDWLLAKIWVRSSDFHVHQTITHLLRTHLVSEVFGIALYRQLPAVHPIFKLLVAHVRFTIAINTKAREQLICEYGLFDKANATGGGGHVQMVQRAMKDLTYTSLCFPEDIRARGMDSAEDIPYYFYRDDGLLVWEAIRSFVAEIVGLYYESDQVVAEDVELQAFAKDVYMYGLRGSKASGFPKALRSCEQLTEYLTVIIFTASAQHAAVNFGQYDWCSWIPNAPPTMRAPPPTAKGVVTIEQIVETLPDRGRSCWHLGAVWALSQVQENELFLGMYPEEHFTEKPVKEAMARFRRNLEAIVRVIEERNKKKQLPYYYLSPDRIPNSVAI
Kind of experiment: 5-Lipoxygenase inhibitory effect. The class given is biochemical. The conditions noted are these: cytosol fraction of guinea pig polymorphonuclear leukocytes, 14C-arachidonic acid, 5-hydroxyeicosatetraenoic acid formation. How it is done: 2) 5-Lipoxygenase inhibitory effect
The assay was carried out by the method described in Journal of Biological Chemistry 258, 5754-5758 (1983) Casein was injected into the abdominal cavity of a guinea pig, and the polymorphonuclear leukocytes were collected and the cytosol fraction was obtained as an enzyme source. ^14 C-Arachidonic acid was reacted with the enzyme and the test drugs at various concentrations over a predetermined period of time. The obtained 5-hydroxyeicosatetraenoic acid was separated by thin-layer chromatography and the radioactivity was determined. By the comparison with the radioactivity of the control, the IC50 values were calculated.

The subject of experiment [1] is contraction of respiratory tract. Kind of experiment: Effect on allergic asthma (airway resistance after ovalbumin challenge in passively sensitized guinea pigs). The class given is in vivo, guinea pig (Hartley). The conditions noted are these: mean ± standard error, oral, 100 mg in 5 ml, 5 ml/kg, 2 hours before challenge, ovalbumin i.v., diphenhydramine, propranolol and indomethacin pretreatment. How it is done:
3. Effect on allergic asthma
To a guinea pig (Hartley, 350 to 400 g, male) was administered 0.5 ml/kg of a guinea pig anti-ovalbumin IgE serum for passive sensitization. Two days later, the guinea pig was anesthetized with pentobarbital (70 mg/kg) and a cannula and a catheter were each inserted into the trachea and a carotid artery, respectively. Further, the spontaneous respiration of the guinea pig was stopped with use of 0.5 mg/kg of pancuronium bromide and artificial respiration was conducted (100% oxygen at 1 kgf/cm^2, respirator: EVM-50A (manufactured by AIKA Co., Ltd.), predetermined flow rate of oxygen: 0.45 l/min, number of respiration: 40 times/min, time for inspiration: 0.25 sec/respiration). The measurement for contraction of respiratory tract was carried out by modified Konzett and Rossler method. A 100 mg quantity of the compound of the present invention was suspended in 5 ml of a 5% Tween-80-phosphate buffered physiological saline solution (pH 6.8). Two hours before the challenge, the test drug was orally administered in a volume of 5 ml/kg. The same quantity of the solvent alone was orally administered to a control group. Further, 2.5 mg/kg of diphenhydramine, 0.05 mg/kg of propranolol and 5 mg/kg of indomethacin were intravenously administered 5 minutes before the challenge. A 22.5 to 35 μg/kg quantity of ovalbumin was intravenously administered and the contraction of respiratory tract was measured as airway resistance with use of a pressure transducer. The maximum airway resistance was taken as 100%, and the change in the airway resistance caused a predetermined period of time after the challenge was shown as the ratio relative to the maximum airway resistance.

Regarding `O=C(Cc1ccc(O)c(O)c1)OC(CN1CCN(CCCCCCCCCCO)CC1)c1ccccc1` (stereo not drawn) [Compound 8], the IC50 at Cyclooxygenase is 9900 nM; on 5-Lipoxygenase it was 320 nM.

`O=C(/C=C/c1ccc(O)c(O)c1)OC(CN1CCN(CCCCCCCCCCO)CC1)c1ccc(Cl)cc1` (stereo not drawn) [Compound 15]: the IC50 against Cyclooxygenase stood at 3400 nM; on 5-Lipoxygenase, 90 nM.

As for `CCCCCCCCCCN1CCN(CC(OC(=O)/C=C/c2ccc(O)c(O)c2)c2ccccc2)CC1` (stereo not drawn) [Compound 19], the values for the IC50 on Cyclooxygenase and on 5-Lipoxygenase were 4300 nM and 80 nM, respectively.

On to `CCCCCCCCCCN1CCN(C(=O)CNC(=O)/C=C/c2ccc(O)c(O)c2)CC1` [Compound 23], for which the IC50 stood at 4200 nM against Cyclooxygenase and 40 nM against 5-Lipoxygenase.

With `CCCCCCCCCCN1CCN(C(=O)/C=C/c2ccc(O)c(O)c2)CC1` [Compound 35], the values for the IC50 at Cyclooxygenase and at 5-Lipoxygenase were 8400 nM and 40 nM, respectively.

With `CCCCCCCCN1CCN(C(=O)/C=C/c2ccc(O)c(O)c2)CC1` [Compound 36], the values for the IC50 against Cyclooxygenase and at 5-Lipoxygenase were 2900 nM and 120 nM, respectively.

With `CCCCCCCCCCN1CCN(C(=O)CNC(=O)/C=C/c2ccc(OC(=O)OCC)c(OC(=O)OCC)c2)CC1` [Compound 40], the “Airway resistance (ratio relative to the maximum airway resistance)” value in experiment [1] (3 minutes after challenge, control 41.9 ± 7.0) was 22.6 ± 3.7%; in experiment [1] (8 minutes after challenge, control 79.5 ± 5.4) it was 45.6 ± 11.0%; in experiment [1] (16 minutes after challenge, control 75.3 ± 5.8), 40.9 ± 11.3%.
